Experimental data as given in patent publication US12642857B2, “Degradation of AKT by conjugation of ATP-competitive AKT inhibitor GDC-0068 with E3 ligase ligands and methods of use” (DANA-FARBER CANCER INSTITUTE, INC., priority 2019, dated 2026).
Entries after “also recorded” stand apart in the source; their conditions may differ.

Experiments:
AKT3 = target: T1, AKT3 (Homo sapiens, UniProt Q9Y243); assay: Z'-LYTE assay (AKT binding assay), AKT3; settings: 10-point dose response, Km ATP, read-out: Biochemical Binding AKT3
T1 construct: purchased Life Technologies (Invitrogen)
T1 sequence (Q9Y243 whole entry): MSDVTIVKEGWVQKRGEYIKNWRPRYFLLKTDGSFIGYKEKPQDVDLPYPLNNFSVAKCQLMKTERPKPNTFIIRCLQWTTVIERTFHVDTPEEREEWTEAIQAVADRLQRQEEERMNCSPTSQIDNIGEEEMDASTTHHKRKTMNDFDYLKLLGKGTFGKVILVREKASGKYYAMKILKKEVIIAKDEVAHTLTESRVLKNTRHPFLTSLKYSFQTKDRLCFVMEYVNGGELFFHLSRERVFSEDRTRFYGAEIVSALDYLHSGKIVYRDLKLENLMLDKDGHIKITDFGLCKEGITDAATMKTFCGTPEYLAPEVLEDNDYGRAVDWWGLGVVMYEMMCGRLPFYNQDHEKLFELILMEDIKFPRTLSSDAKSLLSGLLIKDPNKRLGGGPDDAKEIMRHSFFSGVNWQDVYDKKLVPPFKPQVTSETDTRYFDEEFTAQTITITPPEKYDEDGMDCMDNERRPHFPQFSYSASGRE
Method: (§1) Z′-LYTE assays (catalog number PV3193, Invitrogen™) were conducted for AKT1, AKT2, AKT3, PKG1, S6K1, PKN1, βMSK2, and Haspin at Life Technologies™ in a 10-point dose response using Km ATP concentrations. LanthaScreen™ assays were conducted for RET (V804M) in a 10-point dose response at Life Technologies™.

AKT2 = target: T2, AKT2 (Homo sapiens, UniProt P31751); assay: Z'-LYTE assay (AKT binding assay), AKT2; settings: 10-point dose response, Km ATP, read-out: Biochemical Binding AKT2
T2 construct: purchased Life Technologies (Invitrogen)
T2 sequence (P31751 whole entry): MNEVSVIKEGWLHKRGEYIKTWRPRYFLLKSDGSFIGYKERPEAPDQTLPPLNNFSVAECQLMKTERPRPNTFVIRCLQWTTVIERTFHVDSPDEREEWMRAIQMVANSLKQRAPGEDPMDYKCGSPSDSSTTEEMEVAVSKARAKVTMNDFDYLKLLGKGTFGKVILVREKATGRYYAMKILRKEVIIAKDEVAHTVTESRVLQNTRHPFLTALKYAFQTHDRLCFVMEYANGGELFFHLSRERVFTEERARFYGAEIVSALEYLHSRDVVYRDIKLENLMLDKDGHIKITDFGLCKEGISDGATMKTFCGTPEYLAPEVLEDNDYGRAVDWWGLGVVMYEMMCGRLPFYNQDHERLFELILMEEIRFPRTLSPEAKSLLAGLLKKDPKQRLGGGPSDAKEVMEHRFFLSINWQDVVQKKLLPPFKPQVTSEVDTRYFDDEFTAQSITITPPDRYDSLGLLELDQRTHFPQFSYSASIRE
Method: as §1

AKT1, AKT2 and AKT3 [1] = assay: Immunoblot of AKT isoform degradation in MCF10A cells; format: cell-based, human; settings: 24-hour treatment
Method: (§2) MDA-MB-468 (human breast cancer cell line) cells were maintained in RPMI 1640 (Wisent Bioproducts) supplemented with 10% FBS (Thermo Fisher Scientific) and MCF10A (human breast epithelial cell line) cells were maintained in Dulbecco's modified Eagle's medium (DMEM)/Ham's F12 (Wisent Bioproducts) supplemented with 5% equine serum (Fisher), insulin (10 μg/ml) (Life Technologies), hydrocortisone (500 ng/ml) (Sigma-Aldrich®), epidermal growth factor (20 ng/ml) (R&D Systems), and cholera toxin (100 ng/ml) (List Biological Lab). MDA-MB-468 and MCF10A cells were seeded at 250,000 cells/mL and 200,000 cells/mL, respectively. The following day cells were treated with inventive bifunctional compounds. After 24 hours, cells were washed with phosphate-buffered saline at 4° C. and lysed in radioimmunoprecipitation assay (RIPA) buffer (150 mM Tris-HCl, 150 mM NaCl, 0.5% (w/v) sodium deoxycholate, 1% (v/v) NP-40, pH 7.5) containing 0.1% (w/v) sodium dodecyl sulfate, 1 mM sodium pyrophosphate, 20 mM sodium fluoride, 50 nM calyculin, and 0.5% (v/v) protease inhibitor cocktail (Sigma-Aldrich®)). Cell extracts were precleared by centrifugation at 14,000 rpm for 10 minutes at 4° C. The Bio-Rad DC protein assay was used to assess protein concentration, and sample concentration was normalized using SDS sample buffer. […] Images were stored and analyzed using ImageStudio™ (LI-COR®) software. […]

AKT1, AKT2 and AKT3 [2] = assay: Immunoblot of AKT isoform degradation in MDA-MB-468 cells; format: cell-based, human; settings: 24-hour treatment
Method: as §2

AKT1 = target: T3, AKT1 (Homo sapiens, UniProt P31749); assay: Z'-LYTE assay (AKT binding assay), AKT1; settings: 10-point dose response, Km ATP, read-out: Biochemical Binding AKT1
T3 construct: purchased Life Technologies (Invitrogen)
T3 sequence (P31749 whole entry): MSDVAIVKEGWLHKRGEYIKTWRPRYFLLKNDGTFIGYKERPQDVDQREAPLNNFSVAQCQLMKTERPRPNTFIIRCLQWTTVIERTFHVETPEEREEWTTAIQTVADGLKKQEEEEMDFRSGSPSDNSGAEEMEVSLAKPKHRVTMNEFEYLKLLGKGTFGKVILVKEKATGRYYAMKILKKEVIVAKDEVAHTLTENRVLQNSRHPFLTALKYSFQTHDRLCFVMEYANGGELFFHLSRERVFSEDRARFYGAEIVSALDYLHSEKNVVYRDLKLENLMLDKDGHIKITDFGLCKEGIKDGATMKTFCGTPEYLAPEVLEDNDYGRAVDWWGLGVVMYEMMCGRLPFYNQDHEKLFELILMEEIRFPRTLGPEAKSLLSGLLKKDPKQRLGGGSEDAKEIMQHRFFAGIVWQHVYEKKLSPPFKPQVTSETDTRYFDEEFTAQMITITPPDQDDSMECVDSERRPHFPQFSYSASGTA
Method: as §1

## Cc1ncsc1-c1ccc([C@H](C)NC(=O)[C@@H]2C[C@@H](O)CN2C(=O)[C@@H](NC(=O)CCOCCCNC[C@@H](C(=O)N2CCN(c3ncnc4c3[C@H](C)CC4)CC2)c2ccc(Cl)cc2)C(C)(C)C)cc1 [Compound 1, (2S,4R)-1-((S)-2-(3-(3-(((S)-2-(4-chlorophenyl)-3-(4-((R)-5-methyl-6,7-dihydro-5H-cyclopenta[d]pyrimidin-4-yl)piperazin-1-yl)-3-oxopropyl)amino)propoxy)propanamido)-3,3-dimethylbutanoyl)-4-hydroxy-N—((S)-1-(4-(4-methylthiazol-5-yl)phenyl)ethyl)pyrrolidine-2-carboxamide]
AKT3
  IC50: 4.94 nM
AKT2
  IC50: 15.1 nM
AKT1, AKT2 and AKT3 [1]
  Degradation of AKT isoforms: degraded in MCF10A cells in a dose-dependent manner
AKT1, AKT2 and AKT3 [2]
  Degradation of AKT isoforms: degraded in MDA-MB-468 cells in a dose-dependent manner; also recorded: degraded in MDA-MB-468 cells (FIG. 3)
AKT1
  IC50: 1.58 nM

## C[C@@H]1C[C@@H](O)c2ncnc(N3CCN(C(=O)[C@H](CNCCCCCCCCNC(=O)COc4cccc5c4C(=O)N(C4CCC(=O)NC4=O)C5=O)c4ccc(Cl)cc4)CC3)c21 (stereo partly drawn) [Compound 3, N-(8-(((S)-2-(4-chlorophenyl)-3-(4-((5R,7R)-7-hydroxy-5-methyl-6,7-dihydro-5H-cyclopenta[d]pyrimidin-4-yl)piperazin-1-yl)-3-oxopropyl)amino)octyl)-2-((2-(2,6-dioxopiperidin-3-yl)-1,3-dioxoisoindolin-4-yl)oxy)acetamide]
AKT3
  IC50: 1.23 nM
AKT2
  IC50: 4.04 nM
AKT1, AKT2 and AKT3 [1]
  Degradation of AKT isoforms: degraded in MCF10A cells in a dose-dependent manner
AKT1, AKT2 and AKT3 [2]
  Degradation of AKT isoforms: degraded in MDA-MB-468 cells in a dose-dependent manner; also recorded: degraded in MDA-MB-468 cells (FIG. 3)
AKT1
  IC50: 1.03 nM
